Test results: US20250049930A1, “PROTAC MOLECULES TARGETING FOXP3 AND USES THEREOF” (CEDARS-SINAI MEDICAL CENTER, priority 2022, published 2025)
Residues, ends and D or L forms follow the SMILES beside them. *: point of attachment. X1 = O=C1CCC(N2C(=O)c3cccc(*)c3C2=O)C(=O)N1; PEG4 = NCCOCCOCCOCCOCCC(=O)O

What was measured:
cereblon = cereblon (Homo sapiens, UniProt Q96SW2); test: SPR assay, binary complex; type: binding; details: 25° C., binary complex of cereblon and P-FoxP3
Protocol: The SPR assay for ternary complex cooperativity was performed by BOC Sciences who provided the following details: Various concentrations of cereblon were dissolved in water and manually printed onto the 47 nm gold-coated PlexArray Nanocapture Sensor Chip (Plexera Bioscience, Seattle, WA) at 40% humidity. Each concentration was printed in replicate, and each spot contained […] of sample solution. The chip was incubated overnight in 80% humidity at 4° C., and rinsed with 10×PBST for 10 minutes, 1×PBST for 10 minutes, and deionized water twice for 10 minutes. The chip was then blocked with 5% non-fat milk in water overnight, washed as before, and then dried under a stream of nitrogen.
SPR imaging measurements were performed with PlexAray HT (Plexera Bioscience, Seattle, WA, US). Buffers and samples were injected by a non-pulsatile piston pump into the 30 μL flow cell. […] The signal changes after binding and washing (in AU) are recorded as the assay value. Selected protein-grafted regions in the SPR images were analyzed, and the average reflectivity variations of the chosen areas were plotted as a function of time. Real-time binding signals were recorded and analyzed by Data Analysis Module (DAM, Plexera Bioscience, Seattle, WA, US). […]

FoxP3 = target: T1, FoxP3 (Mus musculus, UniProt Q99JB6); test: FoxP3 positive CD4+ cells in peripheral blood and spleen of mice after PF administration; type: in vivo
T1 construct: from tissue; host or cells: peripheral blood and spleen of mice
T1 sequence (Q99JB6 1-429): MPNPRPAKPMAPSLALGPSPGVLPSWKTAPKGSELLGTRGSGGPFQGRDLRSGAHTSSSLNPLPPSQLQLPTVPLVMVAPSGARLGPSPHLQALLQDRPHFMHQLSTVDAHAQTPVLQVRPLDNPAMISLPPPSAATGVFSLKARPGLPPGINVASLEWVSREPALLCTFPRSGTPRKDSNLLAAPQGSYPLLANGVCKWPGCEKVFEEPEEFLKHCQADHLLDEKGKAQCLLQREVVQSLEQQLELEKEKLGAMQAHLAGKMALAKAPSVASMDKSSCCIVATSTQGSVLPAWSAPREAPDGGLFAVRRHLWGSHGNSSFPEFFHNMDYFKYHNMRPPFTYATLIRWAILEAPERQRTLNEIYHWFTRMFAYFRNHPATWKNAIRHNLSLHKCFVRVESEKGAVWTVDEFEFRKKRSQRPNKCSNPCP
Protocol: FIGS. 2A-2E depict that a proteolysis-targeting chimera (PROTAC) targeting FoxP3 (PF) degraded FoxP3 in vitro and in vivo. P-FoxP3 forms a ternary complex with cereblon and FoxP3. Surface plasmon resonance (SPR) assay was used to measure the equilibrium dissociation constant (KD) for the ternary complex consisting of cereblon, P-FoxP3 and FoxP3 (FIG. 2A). SPR assay was used to measure the KD for the binary complex consisting of cereblon and P-FoxP3 (FIG. 2B). Mouse splenocytes were treated in vitro with varying PF concentrations and percent of CD4+ cells staining for intracellular FoxP3 was assessed by flow cytometry. (FIG. 2C). Mice received 0.1 mmole of PF intraperitoneally (i.p.) (FIGS. 2D and 2E). 72 hours later, FoxP3 positive CD4+ cells in peripheral blood and spleen were assessed by flow cytometry (FIG. 2D). FoxP3 positive CD4+ cells in peripheral blood were assessed by flow cytometry at various timepoints following PF administration (FIG. 2E). Representative results from duplicate experiments are shown.
To assess T cells in mice, CD4+ FoxP3+ cells from serial peripheral blood draws were assessed by flow cytometry. To assess lymphocytes in mice treated with various therapies, lymph nodes and spleens were harvested to make single-cell suspensions that were activated by a CA9 peptide (AYEQLLSHL) for 4 days, and then flow cytometry was used to assess CD4, CD8, IFNγ, TNFα, CD62L CD44, and Eomes.
To determine if PF results in the degradation of FoxP3, mouse splenocytes were treated in vitro with varying concentrations of PF and percent of CD4+ cells staining for intracellular FoxP3 was assessed by flow cytometry. […] The next step was to determine if PF can decrease FoxP3 in vivo. […] 72 hours later, FoxP3 positive CD4+ cells in peripheral blood and spleen were assessed by flow cytometry. […] To understand the time course of FoxP3 decrease, serial blood draws were assessed after a single injection of PF (FIG. 2E). FoxP3 positive CD4+ cells in peripheral blood were assessed by flow cytometry at various timepoints following the PF administration. […]

cereblon, sequence (Q96SW2 whole entry): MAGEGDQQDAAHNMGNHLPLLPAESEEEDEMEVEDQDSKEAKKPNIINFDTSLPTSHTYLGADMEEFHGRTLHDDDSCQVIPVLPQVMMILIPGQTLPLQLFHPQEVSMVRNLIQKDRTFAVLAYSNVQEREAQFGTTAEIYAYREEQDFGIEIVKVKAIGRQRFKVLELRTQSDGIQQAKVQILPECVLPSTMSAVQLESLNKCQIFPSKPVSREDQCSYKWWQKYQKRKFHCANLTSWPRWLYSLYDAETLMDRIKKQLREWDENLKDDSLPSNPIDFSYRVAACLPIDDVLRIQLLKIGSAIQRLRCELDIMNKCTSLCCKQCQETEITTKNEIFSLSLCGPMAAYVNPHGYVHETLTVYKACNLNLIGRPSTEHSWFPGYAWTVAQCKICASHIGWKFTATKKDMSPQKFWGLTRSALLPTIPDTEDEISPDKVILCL

Kd (cereblon): 987 nM | duration of FoxP3 decrease after a single PF dose (FoxP3; spleen and peripheral lymphocytes): at least 8 days
Structure (SMILES): CSCC[C@H](NC(=O)[C@H](C)NC(=O)[C@H](Cc1ccccc1)NC(=O)[C@H](Cc1ccccc1)NC(=O)[C@@H]1CCCN1C(=O)[C@H](Cc1c[nH]c2ccccc12)NC(=O)[C@H](CCSC)NC(=O)[C@H](CCCCN)NC(=O)[C@H](CCCNC(=N)N)NC(=O)[C@H](Cc1ccccc1)NC(=O)[C@H](CO)NC(=O)[C@H](CCC(N)=O)NC(=O)[C@H](Cc1ccccc1)NC(=O)[C@H](CC(=O)O)NC(=O)[C@H](CCCNC(=N)N)NC(=O)CCOCCOCCOCCOCCNc1cccc2c1C(=O)N(C1CCC(=O)NC1=O)C2=O)C(=O)O (stereo partly shown) [PF, Pomalidomide-PEG4-RDFQSFRKMWPFFAM] ({X1-PEG4}-RDFQSFRKMWPFFAM-OH)
FoxP3 positive CD4+ cells in peripheral blood, time course (FoxP3; serial blood draws after a single injection of PF): immediately dropped as measured on day 2, and slightly came up on day 8 | FoxP3 positive CD4+ cells in peripheral blood and spleen (FoxP3; single dose 0.1 mmole i.p., 72 hours later, peripheral decrease p<0.0008): decreased 3 days later in both spleen and peripheral blood
